This note sets out measurements from PubChem BioAssay (NCI).

Experiment in all cases: DTP human tumour cell line panel, 48 h
In assay [1] the test system is NCI-H460 lung.
For assay [2], the system named is A498 renal.
For assay [3], the system named is HCT-116 colon.
The test system of assay [4] is HS 578T breast.
Assay [5] has as its system UO-31 renal.
Assay [6] deals with OVCAR-8 ovarian.
In assay [7] the test system is HCT-15 colon.
Assay [8] concerns NCI-H226 lung.
Assay [9] relates to SK-MEL-5 melanoma.
Assay [10] relates to SNB-75 CNS.

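A five-concentration, 48-hour dose response in 96-well plates underlies each endpoint, interpolated linearly between surrounding concentrations. GI50 marks 50% less growth. At the TGI there is no net growth.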

With `O=C(Nc1ccc(-n2cc(-c3ccncc3)c(-c3ccc(Cl)c(O)c3)n2)cc1)Nc1ccc(Cl)c(C(F)(F)F)c1`, the GI50 is 1.7 µM in assay [1]; 1.63 µM in [2]; 1.29 µM in [3]; 1.39 µM in assay [4]; 1.66 µM in [5]; 1.77 µM in assay [6]. Moreover, the GI50 in assay [7] is 1.31 µM; in [8], 2.76 µM; in assay [9], 1.53 µM; in assay [10] it was 0.363 µM. Also, the TGI was 3.4 µM in assay [1]; 9.29 µM in assay [2]; 2.72 µM in assay [3]; 4.43 µM in assay [4]; 3.6 µM in assay [5]; 4.8 µM in assay [6]. Also, the TGI was 2.95 µM in assay [7], 10.8 µM in assay [8], 2.95 µM in assay [9] and 2.14 µM in assay [10].

`O=C(Nc1ccc(Br)cc1)c1ccc(Cl)c(Cl)c1`: the GI50 in assay [1] was 3.16 µM; in assay [2], 0.207 µM; in assay [3], 2.72 µM; in assay [4], 3.8 µM; in assay [5], 2.31 µM; in [6], 4.2 µM. Besides, the GI50 was 3.02 µM in [7], 2.86 µM in assay [8], 3.45 µM in [9] and 3.2 µM in [10]. Further, the TGI in assay [1] was greater than 30.5 µM; in assay [2], 3.75 µM; in [3], 8.07 µM; in assay [4], greater than 100 µM; in [5], greater than 100 µM; in assay [6] it was greater than 100 µM. Moreover, the TGI in assay [7] is greater than 100 µM; in assay [8] it was greater than 100 µM; in assay [9], greater than 100 µM; in assay [10], greater than 31 µM.

Regarding `C[C@]12CC[C@@H]3c4ccc(O)cc4CC[C@H]3[C@@H]1CC[C@@H]2NS(=O)(=O)c1cccc(F)c1`, the GI50 was 2.72 µM in assay [1]; 2.07 µM in assay [2]; 2.63 µM in [3]; 3.88 µM in assay [4]; 2.04 µM in assay [5]; 3.84 µM in assay [6]. Moreover, the GI50 in assay [7] was 2.8 µM; in assay [8], 3.72 µM; in [9] it was 1.66 µM; in [10], 2.93 µM. The TGI in assay [1] worked out at 7.18 µM; in [2], 6.68 µM; in assay [3], 7.33 µM; in assay [4], 19.1 µM; in assay [5] it was 10.3 µM; in assay [6] it was 15.8 µM. For the same compound, the TGI in [7] was 11.3 µM; in assay [8], 16.7 µM; in assay [9], 3.15 µM; in assay [10], 15 µM.

In the case of `[Au+].[Au+].[Au+].[c-]1nccn1Cc1ccccc1.[c-]1nccn1Cc1ccccc1.[c-]1nccn1Cc1ccccc1`, the GI50 is 11.6 µM in assay [1]; 16.1 µM in assay [2]; 6.68 µM in [3]; 19.8 µM in assay [4]; 15 µM in assay [5]; 5.06 µM in assay [6]. The GI50 was 19.9 µM in assay [7], 14.6 µM in [8], 2.93 µM in assay [9] and 6.08 µM in assay [10]. Further, the TGI in assay [1] was 54.5 µM; in [2] it was 33.6 µM; in assay [3], 18.6 µM; in [4] it was 64 µM; in [5] it was 28.4 µM; in [6] it was greater than 42.6 µM. The TGI in [7] worked out at 56.7 µM; in assay [8], 71.4 µM; in assay [9], 6.15 µM; in assay [10], 18.9 µM.

As to `N=C(N)SCc1cccc(-c2nc3ccccc3c(=O)o2)c1`, the TGI in assay [1], in assay [2], in assay [3], in assay [4], in assay [5] and in [6] was greater than 100 µM each time. Further, the TGI in assay [7], in assay [8], in [9] and in assay [10] was greater than 100 µM in each case.

With `C[C@]12CC[C@H](O)C[C@H]1CC[C@@H]1[C@@H]2CC[C@]2(C)[C@@H](C3=CC(=O)OC3)CC[C@]12O`, the TGI was 0.139 µM in assay [1]; 0.378 µM in assay [2]; 0.0663 µM in assay [3]; greater than 100 µM in assay [4]; 4.07 µM in assay [5]; 1.07 µM in assay [6]. Further, the TGI in [7] was found to be 0.316 µM; in assay [8], 2.83 µM; in assay [9] it was 0.205 µM; in [10], 2.12 µM. Further, the concentration for 50% growth inhibition (GI50) in assay [2] was 0.0591 µM.

As for `COc1ccc2ncn(-c3cc(O[C@H](C)c4ccccc4Cl)c(C(N)=O)s3)c2c1`, the GI50 in assay [1] is 0.0133 µM; in assay [2] it was 0.0441 µM; in assay [3] it was 0.021 µM; in [4] it was 0.0763 µM; in [5], 1.41 µM; in assay [6] it was 0.0274 µM. The GI50 in assay [7] is 0.0203 µM; in assay [8], 0.6 µM; in [9], 0.00951 µM; in assay [10], 0.148 µM. For the same compound, the total growth inhibition concentration (TGI) in assay [1] was 3.51 µM; in [2], 0.57 µM; in assay [3] it was 3.64 µM; in assay [4] it was 1.26 µM; in [5], 17 µM; in [6], 20.8 µM. The TGI in assay [7] is greater than 25 µM; in [8] it was 12.7 µM; in assay [9] it was 0.54 µM; in assay [10] it was greater than 19.7 µM.

`Oc1cn(-c2ccc(Cl)cc2)nc1-c1n[nH]c(=S)n1C1CCCCC1`: the GI50 was 0.334 µM in assay [1]; 0.365 µM in assay [2]; 0.612 µM in assay [3]; 0.28 µM in assay [4]; 17 µM in [5]; 0.46 µM in [6]. The 50% growth inhibitory concentration (GI50) in assay [7] was 0.31 µM; in assay [8], 59.8 µM; in [9], 0.25 µM; in assay [10] it was 0.165 µM. In addition, the TGI in assay [1] is greater than 100 µM; in assay [2] it was 9.44 µM; in assay [3] it was 39.8 µM; in assay [5] it was greater than 100 µM; in assay [6] it was 16.8 µM; in assay [7], greater than 100 µM. Besides, the TGI is greater than 100 µM in assay [8], 12.3 µM in [9] and 0.702 µM in assay [10].

A word on the GI50: it is the concentration at which growth is held to half of that of the control. One may read the TGI as the concentration at which net growth stops. High values mean less potent growth arrest, low ones more potent growth arrest.
